# From paper PMC5268383, “Inhibition of STAT3 by Anticancer Drug Bendamustine” (PLoS ONE, 2017)
# Entries after “also recorded” stand apart in the source; their conditions may differ. Read-outs that look alike come from different tables or passages of the source.
# Legend:
# [1] = molecular target: T1, STAT3 Cys712 mutant (C712A) (Homo sapiens, UniProt P40763, C712A); assay: SH2 binding AlphaScreen assay with Cys712 mutant recombinant STAT3; details: 100 μM BENDA, 375 nM mutant STAT3, 30 min
# T1 construct: Full-length cDNAs were obtained from a human cDNA library by PCR; Avi-tag (N); 6His-tag (N); made in house; host or cells: Escherichia coli (pET-28a; host inferred to be the same BirA-BL21 as for wild type)
# Method: (§1) Point mutations were introduced into recombinant human STAT3 (rhSTAT3) by inverse PCR. We mutated Cys468, Cys542, Cys550, Cys687, and Cys712 near the SH2 domain to alanine. Inverse PCR was performed by using pBluescript II KS (+) as a template, KOD-Plus-ver. 2 (Toyobo, Osaka, Japan), and the following oligonucleotide primer set: Cys468 (forward: 5’-TCCAACATCG CTCAGATGCC AAATG-3’, reverse: 5′-GATCACCACA ACTGGCAAGG AGTGG-3′); Cys542 (forward: 5′-GAATTATTCAGGGGCTCAGATCACATGGGCTAAAT-3′, reverse: 5′-ACACCAGGTC CCAAGAGTTT CTCTGCC-3′); Cys550 (forward: 5′-GCTAAATTTG CCAAAGAAAA CATGGCTGGC-3′, reverse: 5′-CCATGTGATC TGACACCCTG AATAATTCA CACC-3′); Cys687 (forward: 5′-GGAAAGTATG CTCGGCCAGA GAGCCAG-3′, reverse: 5′-GAATGCCTCC TCCTTGGGAA TGTCAGG-3′); and Cys712 (forward: 5′-AAGTTTATCG CTGTGACACC AACGACCTGC-3′, reverse: 5′-GGTCTTCAGG TATGGGGCAG CGCTAC-3′). Inverse PCR (1 × PCR buffer, 1.5 mM MgSO4, 15 pmol 5′ primer and 3′ primer, 0.2 mM dNTPs, 50 ng STAT3 cDNA, 1 U KOD Plus) was performed under the following conditions: 2 min at 94°C, (10 s at 98°C, and 6.5 min at 68°C)×7 cycles. The amplified fragment was ligated by using Ligation High ver. 2 (Toyobo). The resultant plasmid was cloned into the HindIII/XhoI sites of modified pET-28a (+). The nucleotides coding for human mutant STAT3 in pET-28a (+) were named mutant STAT3 His-Avi-pET28a (+). […]
# [2] = molecular target: T2, recombinant human STAT3 SH2 domain (Homo sapiens, UniProt P40763); assay: AlphaScreen SH2 binding assay, STAT3
# T2 construct: Full-length cDNAs were obtained from a human cDNA library by PCR; Avi-tag (biotinylated in BirA-BL21) (N); made in house; host or cells: Escherichia coli BirA-BL21
# Method: (§2) AlphaScreen assays were performed in a final reaction volume of 25 μL of the assay buffer, containing 10 mM HEPES-NaOH (pH 7.4), 50 mM NaCl, 1 mM EDTA (pH 8.0), 0.1% NP-40, and 10 ng/mL BSA in a 96-well microtiter plate at 25°C. The labeled Phospho-Tyr (pTyr) peptide probe was 5-carboxyfluorescein (FITC)-GpYLPQTV for STAT3, FITC-GpYDKPHVL for STAT1, and FITC-PSpYVNVQN for Grb2. A DMSO solution of BENDA was incubated with 50 nM of each SH2-containing protein for 15 min, 50 nM of the corresponding FITC-pTyr peptide was added, and the mixture was incubated for 90 min. Streptavidin-coated donor beads and anti-FITC acceptor beads were added and incubated for 90 min before the signals were measured with an Envision Xcite plate reader (PerkinElmer Life Sciences, Waltham, MA, USA).
# Grb2 SH2 = molecular target: T3, Grb2 SH2 (Homo sapiens, UniProt P62993); assay: AlphaScreen SH2 binding assay, Grb2
# T3 construct: Avi-tag (N); 6His-tag (N)
# Method: as §2
# rhSTAT3 = molecular target: T4, rhSTAT3 (Homo sapiens, UniProt P40763); assay: Competition assay with cysteine-blocking reagent Alexa Fluor 488 C5 maleimide; type: binding; details: 2 h, 10 μM Alexa Fluor 488 C5 maleimide
# T4 construct: Full-length cDNAs were obtained from a human cDNA library by PCR; Avi-tag (biotinylated in BirA-BL21) (N); made in house; host or cells: Escherichia coli BirA-BL21
# Method: rhSTAT3 (0.89 μM) in 100 mM HEPES was incubated with 10 μM Alexa Fluor 488 C5 maleimide (Invitrogen, Paisley, UK), a thiol-reactive probe, in the presence or absence of 50 or 100 μM BENDA or HP2 for 2 h at room temperature. Samples were diluted in SDS-PAGE sample buffer without boiling or 2-mercaptoethanol and run on an SDS-PAGE gel. The protein was transferred to a nitrocellulose membrane and then blotted with Ni-HRP. The Alexa-labeled rhSTAT3 was analyzed by fluorescence (excitation/emission: 493/516 nm) and western blotting with Ni-HRP.
# [3] = tested on: cyclin D1, survivin and Bcl-2 mRNA in MDA-MB-468 cells; assay: RT-PCR of STAT3 target genes cyclin D1, survivin, Bcl-2; type: cell-based, human; details: MDA-MB-468, 50 or 100 μM, 8 h
# cells = tested on: cells; design: method as in PMID 22768280; details: cited from earlier work
# [4] = tested on: c-Myc protein in MDA-MB-468 cells; assay: Western blotting of c-Myc protein; type: cell-based, human; details: MDA-MB-468, 50 or 100 μM, 24 h
# Method: Cells were treated with PhosphoSafe Extraction Reagent. Total proteins (40 μg) were subjected to SDS-PAGE and then transferred onto a nitrocellulose membrane. Membranes were blocked in 5% skim milk in TBS/0.1% Tween 20, incubated with primary antibodies diluted at 1:1000 in 1.5% skim milk in TBS (pH 7.4)/0.1% Tween 20 overnight at 4°C, and then incubated with HRP-conjugated secondary antibodies diluted at 1:5000 in TBS (pH 7.4)/0.1% Tween 20 for 1 h at room temperature. Immunoblots were developed with a chemiluminescent substrate.
# [5] = molecular target: T5, STAT3 Cys550 mutant (C550A) (Homo sapiens, UniProt P40763, C550A); assay: SH2 binding AlphaScreen assay with Cys550 mutant recombinant STAT3; details: 100 μM BENDA, 375 nM mutant STAT3, 30 min
# T5 construct: Full-length cDNAs were obtained from a human cDNA library by PCR; Avi-tag (N); 6His-tag (N); made in house; host or cells: Escherichia coli (pET-28a; host inferred to be the same BirA-BL21 as for wild type)
# Method: as §1
# T2 sequence (P40763 whole entry, the tested form may be a part): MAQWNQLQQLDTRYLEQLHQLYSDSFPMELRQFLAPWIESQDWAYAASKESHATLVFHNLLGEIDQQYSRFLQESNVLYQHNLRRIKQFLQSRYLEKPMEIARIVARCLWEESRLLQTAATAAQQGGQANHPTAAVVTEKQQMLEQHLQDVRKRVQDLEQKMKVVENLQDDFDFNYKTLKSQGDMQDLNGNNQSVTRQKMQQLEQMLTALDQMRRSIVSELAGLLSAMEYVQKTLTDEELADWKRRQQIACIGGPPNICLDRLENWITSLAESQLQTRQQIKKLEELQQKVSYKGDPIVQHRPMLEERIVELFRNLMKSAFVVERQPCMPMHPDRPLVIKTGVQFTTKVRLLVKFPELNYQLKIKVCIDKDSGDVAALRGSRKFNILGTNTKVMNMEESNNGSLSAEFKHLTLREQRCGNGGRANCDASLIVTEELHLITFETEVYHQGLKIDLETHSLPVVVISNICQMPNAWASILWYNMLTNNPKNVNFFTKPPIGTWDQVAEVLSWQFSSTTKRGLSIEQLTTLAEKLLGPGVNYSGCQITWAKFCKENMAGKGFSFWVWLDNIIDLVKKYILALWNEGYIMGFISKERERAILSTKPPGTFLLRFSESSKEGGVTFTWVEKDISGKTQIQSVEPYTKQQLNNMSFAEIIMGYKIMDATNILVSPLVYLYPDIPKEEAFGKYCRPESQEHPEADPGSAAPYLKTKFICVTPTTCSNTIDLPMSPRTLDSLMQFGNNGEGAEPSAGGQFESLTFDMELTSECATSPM
# T4 sequence (P40763 whole entry): as the sequence (P40763 whole entry, the tested form may be a part) above
# T3 sequence (P62993 whole entry): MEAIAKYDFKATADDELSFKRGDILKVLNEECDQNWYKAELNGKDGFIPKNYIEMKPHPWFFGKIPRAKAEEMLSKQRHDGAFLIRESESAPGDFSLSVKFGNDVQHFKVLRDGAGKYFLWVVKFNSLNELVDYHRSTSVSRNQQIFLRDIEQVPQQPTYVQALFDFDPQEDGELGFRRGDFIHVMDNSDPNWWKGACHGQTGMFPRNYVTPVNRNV
# T5 sequence (P40763 whole entry C550A): as the sequence (P40763 whole entry, the tested form may be a part) above, with C550A counted along it
# T1 sequence (P40763 whole entry C712A): as the sequence (P40763 whole entry, the tested form may be a part) above, with C712A counted along it
structure (smiles),measurement,setting,value
"Cn1c(CCCC(=O)O)nc2cc(N(CCCl)CCCl)ccc21 [BENDA, 4-{5-[bis(2-chloroethyl)amino]-1-methyl-2-benzimidazolyl} butyric acid]",inhibition at 100 µM,[1],25%
same,IC50,[2],7.4 µM
same,SH2 binding inhibition in presence of 2-mercaptoethanol,"[2]; 200 μM (0.2 mM) 2-mercaptoethanol, data not shown",did not inhibit; also recorded: wholly inactivated
same,SH2 inhibitory activity in presence of excess L-cysteine,[2]; 200 μM (0.2 mM) L-cysteine added to assay mixture,attenuated; also recorded: wholly inactivated
same,IC50,Grb2 SH2,> 100 µM
same,Fluorescence intensity of Alexa-labeled rhSTAT3 (reduced to),rhSTAT3; 50 μM compound,62%
same,Fluorescence intensity of Alexa-labeled rhSTAT3 (reduced to),rhSTAT3; 100 μM compound,52%
same,Bcl-2 mRNA expression,[3],dose-dependent decrease
same,cyclin D1 mRNA expression,[3],dose-dependent decrease
same,survivin mRNA expression,[3],dose-dependent decrease
same,Cell cycle arrest,cells; 50 μM,transiently arrested cells in G2
same,Cell cycle arrest,cells; 200 μM,arrested cells in S phase
same,Expression of c-Myc protein,[4],inhibited the expression of c-Myc protein
same,inhibition at 100 µM,[5],3%
